Experimental data published in patent US20210186947A1, “TOMM6-INTERACTING EXTRACTS AND COMPOUNDS FOR USE IN THE TREATMENT AND PROPHYLAXIS OF NERVOUS SYSTEM DISEASES, ATHEROSCLEROSIS, HEPATITIS B INFECTION AND HUMAN PAPILLOMA VIRUS (HPV) INFECTION” (ETH ZURICH, priority 2018, published 2021).

Assays:
[1] = target: T1, Tomm6 (Mitochondrial import receptor subunit TOMM6 homolog) (Mus musculus, UniProt Q9CQN3); assay: Identification of Compound-1-interacting hippocampal proteins by co-migration in SDS-PAGE and nano-LC-ESI-MS/MS; assay type: binding, Tg2576 mice; details: solubilisate of hippocampal proteins supplemented with 10 microM Compound-1
T1 construct: hippocampi were isolated from 5-10 aged Tg2576 mice, pulverized under liquid nitrogen and solubilized; from tissue; host or cells: hippocampus of Tg2576 mice
Experimental: To isolate Compound-1-interacting hippocampal proteins, hippocampi were isolated from 5-10 aged Tg2576 mice, pulverized under liquid nitrogen and solubilized for 30 min at 4° C. in solubilization buffer (1% sodium deoxycholate, 0.05% SDS, 0.05% Tween 20 in PBS, pH 7.4, supplemented with protease inhibitors). Insoluble material was removed by centrifugation. The supernatant was diluted 1:5 in PBS (supplemented with protease inhibitors). To this solubilisate, Compound-1 was added at a concentration of 10 μM. Buffer exchange into 20 mM Tris pH 7.4 was performed by centrifugation over Amicon Ultra Centrifugal Filter Units (MWCO 3 kDa; EMD Millipore Merck KGaA, Darmstadt, Germany). The concentrated proteins were dissolved in Laemmli sample buffer (Bio-Rad GmbH, Munchen, Germany) supplemented with mercaptoethanol (355 mM) and subjected to 8% SDS-PAGE under reducing conditions. Compound-1-interacting proteins were identified by co-migration, protein bands were cut and subjected to nano-LC-ES-MS/MS (performed by Proteome Factory AG, Berlin, Germany). Proteins were identified using MS/MS ion search of the Mascot search engine (Matrix Science, London, England) and nr protein database (National Center for Biotechnology Information, Bethesda, MD). […]

[2] = system: Ccr9; assay: Whole genome microarray gene expression analysis of aortic genes: Ccr9; assay type: in vivo; details: ApoE-/- mice, 10 mg/kg/day for 8 months
Experimental: Whole genome microarray gene expression profiling was performed with aortic specimens isolated from 9-month-old ApoE−/− mice without treatment and with oral treatment for 8 months with alizarin (10 mg/kg/day), and untreated age-matched B6 control mice. Total RNA was isolated by the RNeasy Mini kit according to the protocol of the manufacturer (Qiagen). RNA purity was between 1.8 and 2 as determined by the absorbance ratio of 260/280. RNA quality and absence of signs of degradation were also controlled by RNA electrophoresis on a denaturing agarose gel by the presence of bright bands of 28S and 18S ribosomal RNA. Total RNA was processed for whole genome microarray gene expression profiling with the GeneChip One-Cycle Target Labeling System (Affymetrix) according to the protocol of the manufacturer (Affymetrix GeneChip Expression Analysis Technical Manual Rev. 5). […]
Alzheimer's Disease (AD) is the most frequent form of dementia in the elderly. […] Atherosclerotic lesion area was assessed with oil red O-stained aortas isolated from 9-month-old ApoE−/− mice (FIG. 17A). […] The aortic expression levels of neuronal marker genes of alizarin-treated ApoE−/− mice were determined compared to untreated ApoE−/− mice and untreated B6 mice without atherosclerosis (FIG. 17D,E).

[3] = system: Salmonella strain TA2637; details: cited from earlier work

T1 sequence (Q9CQN3 whole entry): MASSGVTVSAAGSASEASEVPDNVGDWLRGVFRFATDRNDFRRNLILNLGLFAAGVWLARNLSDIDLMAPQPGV

O=C1c2ccccc2C(=O)c2c1ccc(O)c2O [Compound-1, 1,2-dihydroxyanthraquinone]
interaction with Tomm6 (co-migration) [1]: major Compound-1-interacting protein
aortic expression of Ccr9 [2]: significantly decreased expression
mutagenicity in the Ames test [3]: could be mutagenic
